# Laboratory results published in patent US20240199651A1, “ANTIBACTERIAL COMPOUNDS” (JANSSEN SCIENCES IRELAND UNLIMITED COMPANY, priority 2021, published 2024).
# Where two headings read alike, the source gives them in different places.
# How the values were obtained:
# [1] = LM CLint (microsomal stability), mouse; format: in vitro ADME; details: for microsomal CLint at 1 µM: microsomes
# Excerpt: (§1) The compounds of the invention/examples may have advantages associated with in vitro potency, kill kinetics (i.e. bactericidal effect) in vitro, PK properties, food effect, safety/toxicity (including liver toxicity, coagulation, 5-LO oxygenase), metabolic stability, Ames II negativity, MNT negativity, aqueous based solubility (and ability to formulate) and/or cardiovascular effect e.g. on animals (e.g. anesthetized guinea pig). Data that is generated/calculated may be obtained using standard methods/assays, for instance that are available in the literature or which may be performed by a supplier (e.g. Microsomal Stability Assay—Cyprotex, Mitochondrial toxicity (Glu/Gal) assay—Cyprotex, as well as literature CYP cocktail inhibition assays). GSH can be measured (reactive metabolites, glucuronidation) to observe if a dihydrodiol is observed by LCMS (fragmentation ions), which would correspond to a dihydroxylation on the core heterocycle.
# (§2) CLint Microsomes (μL/Min/Mg) in Dog (d), Human (h), Mouse (m) and Rat (r) (all at 1 μm)
# [2] = tested on: Mycobacterium tuberculosis strain EH4.0 expressing green-fluorescent protein (GFP); assay: microbe, parasite or virus in culture; format: cell-based
# [3] = LM CLint (microsomal stability), human; format: in vitro ADME; details: for microsomal CLint at 1 µM: liver microsomes, read-out: CLint Microsomes, Human (h)
# Excerpt: as §1, §2
# in vitro = in vitro ADME; details: human, plasma
# Excerpt: PPB % Free (Human at 1 μm)
# [4] = Mitochondrial toxicity (Glu/Gal) assay; format: cell-based; set-up: Glu/Gal: Glu / Glu/Gal: Gal: unit not given here; details: for Glu/Gal: Glu: first value (Glu); for Glu/Gal: Gal: second value (Gal)
# AMES II = format: cell-based; details: score
# Excerpt: as §1
# [5] = LM CLint (microsomal stability), rat; format: in vitro ADME; details: for microsomal CLint at 1 µM: microsomes
# Excerpt: as §1, §2
# MDCK = MDCK permeability (AB+inh, BA/AB); details: with inhibitor
# [6] = Chemical stability testing (LCMS); format: physicochemical; details: for chemical stability, purity by LCMS: 0.065 mg/mL
# Experimental: • Add 3 μl of a 10 mM DMSO stock solution to 1 ml of the following solvents in a 1.5 ml HPLC vial. • DMSO (reference solution) • H2O/Acetonitril 1/1 (assay solution) • 0.1N HCl/Acetonitril 1/1 (assay solution) • Mix well, […] LCMS • Compare the chromatograms of the two assay solutions with the reference solution and report the additional peaks as degradation peaks
# [7] = LM CLint (microsomal stability), dog; format: in vitro ADME; details: for microsomal CLint at 1 µM: microsomes
# Excerpt: as §1, §2
# M. tuberculosis H37Rv = M. tuberculosis H37Rv inside macrophages; cited from earlier work
# [8] = 1 μm, read-out: CLint Microsomes, Mouse (m)
smiles,measurement,setting,value
CCc1nc2ccc(Cl)cn2c1C(=O)NCc1ccc(-c2nc3n(n2)CCN(S(=O)(=O)C(F)(F)F)C3)cc1 [Compound 1],microsomal CLint at 1 µM,[1]; [8],49.2 µL/min/mg
same,IC50,"[2]; Mycobacterium tuberculosis, Test 1 (and/or Test 2), M. tuberculosis",0.00776 µM
same,microsomal CLint at 1 µM,[3],30.3 µL/min/mg
same,fraction unbound at 1 µM,in vitro,0.00047
same,IC50,"[4]; read-out: IC50, gal",> 200 µM
same,IC50,"[4]; read-out: IC50, glu",> 200 µM
CCc1nc2ncc(Cl)cn2c1C(=O)NCc1ccc(-c2nc3n(n2)CCN(S(=O)(=O)C(F)(F)F)C3)cc1 [Compound 2],microsomal CLint at 1 µM,[1],< 7.7 µL/min/mg
same,AMES II,AMES II,1
same,"CLint Microsomes, Rat (r)",[5]; 1 μm,< 7.7 μL/Min/Mg
same,microsomal CLint at 1 µM,[5],< 7.7 µL/min/mg
same,MDCK AB+inh,MDCK,32.5
same,Glu/Gal: Glu,[4],> 100
same,IC50,"[4]; read-out: IC50, gal",> 100 µM
same,IC50,"[4]; read-out: IC50, glu",> 100 µM
same,Glu/Gal: Gal,[4],> 100
same,"chemical stability, purity by LCMS",[6]; 0 h,99.56%
same,"chemical stability, purity by LCMS",[6]; 0.25 h,99.38%
same,"chemical stability, purity by LCMS",[6]; 0.5 h,99.21%
same,"chemical stability, purity by LCMS",[6]; 1 h,98.89%
same,"chemical stability, purity by LCMS",[6]; 2 h,98.28%
same,"chemical stability, purity by LCMS",[6]; 4 h,97.1%
same,"chemical stability, % by LCMS","[6]; 72 h, 30 µM",100%
same,"chemical stability, % by LCMS","[6]; 72 h, 30 µM, pH 1.6",90.52%
same,"CLint Microsomes, Dog (d)",[7]; 1 μm,< 7.7 μL/Min/Mg
same,microsomal CLint at 1 µM,[7],< 7.7 µL/min/mg
CCc1nc2ncc(C)cn2c1C(=O)NCc1ccc(-c2nc3n(n2)CCN(S(=O)(=O)C(F)(F)F)C3)c(F)c1 [Compound 7],microsomal CLint at 1 µM,[1],< 7.7 µL/min/mg
same,MDCK AB+inh,MDCK,21.4
same,Glu/Gal: Glu,[4],> 200
same,IC50,"[4]; read-out: IC50, gal",> 200 µM
same,IC50,"[4]; read-out: IC50, glu",> 200 µM
same,Glu/Gal: Gal,[4],> 200
same,"chemical stability, % by LCMS","[6]; 72 h, 30 µM",100%
same,"chemical stability, % by LCMS","[6]; 72 h, 30 µM, pH 1.6",100%
Cc1cnc2nc(C3CC3)c(C(=O)NCc3ccc(-c4nc5n(n4)CCN(S(=O)(=O)C(F)(F)F)C5)cc3)n2c1 [Compound 42],microsomal CLint at 1 µM,[1]; [8],20.4 µL/min/mg
same,microsomal CLint at 1 µM,[3],47.1 µL/min/mg
same,fraction unbound at 1 µM,in vitro,0.029
same,IC50,"[4]; read-out: IC50, gal",> 25 µM
same,IC50,"[4]; read-out: IC50, glu",> 25 µM
same,"chemical stability, % by LCMS","[6]; 48 h, 30 µM",100%
same,"chemical stability, % by LCMS","[6]; 48 h, 30 µM, pH 1.6",100%
CCc1nc2ncc(C)cn2c1C(=O)NCc1ccc(-c2cn3c(n2)CN(S(=O)(=O)C(F)(F)F)CC3)c(F)c1 [Compound 80],"CLint Microsomes, Mouse (m)",[1]; 1 μm,13.2 μL/Min/Mg
same,pIC50,[2],8.06
same,"CLint Microsomes, Human (h)",[3]; 1 μm,39.8 μL/Min/Mg
same,IC50,"[4]; galactose medium (Glu/Gal mitotoxicity assay), read-out: IC50, gal",> 200 µM
same,IC50,"[4]; glucose medium (Glu/Gal mitotoxicity assay), read-out: IC50, glu",> 200 µM
same,"chemical stability, % by LCMS","[6]; ACN/0.1N HCl (pH 1.6; 0 hr, rt)",100%
same,"chemical stability, % by LCMS","[6]; ACN/0.1N HCl (pH 1.6; 48 hr, rt)",100%
same,"chemical stability, % by LCMS","[6]; ACN/0.1N NaOH (pH 9-10; 0 hr, rt)",76.8%
same,"chemical stability, % by LCMS","[6]; ACN/0.1N NaOH (pH 9-10; 48 hr, rt)",16.8%
same,"chemical stability, % by LCMS","[6]; DMSO (0 hr, rt)",100%
same,"chemical stability, % by LCMS","[6]; DMSO (48 hr, rt)",100%
CCc1nc2ccc(C)cn2c1C(=O)NCc1ccc(-c2cc3n(n2)CCN(S(=O)(=O)C(F)(F)F)C3)cc1 [Compound 81],microsomal CLint at 1 µM,[1]; [8],74.8 µL/min/mg
same,microsomal CLint at 1 µM,[3],> 347 µL/min/mg
same,microsomal CLint at 1 µM,"[5]; 1 μm, read-out: CLint Microsomes, Rat (r)",80.7 µL/min/mg
same,IC50,"[4]; read-out: IC50, gal",> 200 µM
same,IC50,"[4]; read-out: IC50, glu",> 200 µM
same,"chemical stability, % by LCMS","[6]; 0 h, 30 µM",95%
same,"chemical stability, % by LCMS","[6]; 48 h, 30 µM",100%
same,"chemical stability, % by LCMS","[6]; 48 h, 30 µM, pH 1.6",100%
same,microsomal CLint at 1 µM,"[7]; 1 μm, read-out: CLint Microsomes, Dog (d)",189 µL/min/mg
CCc1nc2ncc(C)cn2c1C(=O)NCc1ccc(-c2cc3n(n2)CCN(S(=O)(=O)C(F)(F)F)C3)c(F)c1 [Compound 82],AMES II,AMES II,1
same,MDCK AB+inh,MDCK,16.2
same,Glu/Gal: Glu,[4],> 25
same,IC50,"[4]; read-out: IC50, gal",> 25 µM
same,IC50,"[4]; read-out: IC50, glu",> 25 µM
same,Glu/Gal: Gal,[4],> 25
same,"chemical stability, % by LCMS","[6]; 48 h, 30 µM",100%
same,"chemical stability, % by LCMS","[6]; 48 h, 30 µM, pH 1.6",100%
"CCc1nc2ccc(Cl)cn2c1C(=O)NCc1ccc(N2CCC(c3ccc(OC(F)(F)F)cc3)CC2)cc1 [Compound Q203, Q203]",MIC50,M. tuberculosis H37Rv,0.28 nM
